Drawing on ChEMBL document CHEMBL1145783, “Development of an orexin-2 receptor selective agonist, [Ala(11), D-Leu(15)]orexin-B” (Bioorg Med Chem Lett, 2003), this text covers EC50 for ten compounds.

pEC50: −log10 of the molar value. Some results are limits rather than exact numbers.

This test concerns the target T1, Orexin receptor type 2 (Homo sapiens, UniProt O43614).
T1 sequence (O43614 whole entry): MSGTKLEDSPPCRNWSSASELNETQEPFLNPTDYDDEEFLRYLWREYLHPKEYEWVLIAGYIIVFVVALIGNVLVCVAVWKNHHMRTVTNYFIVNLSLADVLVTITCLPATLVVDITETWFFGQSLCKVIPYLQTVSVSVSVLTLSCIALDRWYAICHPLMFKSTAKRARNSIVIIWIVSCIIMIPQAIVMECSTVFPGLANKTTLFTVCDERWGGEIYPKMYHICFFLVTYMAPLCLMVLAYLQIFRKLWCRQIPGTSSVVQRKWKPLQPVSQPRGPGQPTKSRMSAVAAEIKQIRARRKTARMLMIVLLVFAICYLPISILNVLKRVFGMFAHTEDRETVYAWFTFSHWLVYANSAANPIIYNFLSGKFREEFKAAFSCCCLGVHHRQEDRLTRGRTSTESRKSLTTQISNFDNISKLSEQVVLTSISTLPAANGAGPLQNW
Nature of the test: Agonist activity against human orexin 2 receptor; EC50; nM. The class given is functional.
The compound `CC[C@H](C)[C@H](NC(=O)[C@H](CC(C)C)NC(=O)[C@@H](NC(=O)[C@@H](N)CCSC)[C@@H](C)O)C(=O)NCC(=O)N[C@@H](C)C(=O)N[C@@H](C)C(=O)N[C@@H](Cc1cnc[nH]1)C(=O)N[C@H](CC(N)=O)C(=O)NCC(=O)N[C@@H](CO)C(=O)N[C@@H](C)C(=O)N[C@@H](CCC(N)=O)C(=O)N[C@@H](CC(C)C)C(=O)N[C@@H](CC(C)C)C(=O)N[C@@H](CCCN=C(N)N)C(=O)N[C@@H](CCC(N)=O)C(=O)N[C@@H](CC(C)C)C(=O)N[C@@H](CCCN=C(N)N)C(=O)NCC(=O)N[C@@H](CCC(N)=O)C(=O)N[C@@H](CC(C)C)C(=O)NCC(=O)N1CCC[C@H]1C(=O)N1CCC[C@H]1C(=O)NCC(=O)N[C@@H](CO)C(=O)N[C@@H](CCCN=C(N)N)C(N)=O` gave a pEC50 of 9.59.

The compound `CC[C@H](C)[C@H](NC(=O)[C@H](CC(C)C)NC(=O)[C@@H](NC(=O)[C@@H](N)CCSC)[C@@H](C)O)C(=O)NCC(=O)N[C@@H](C)C(=O)N[C@@H](C)C(=O)N[C@@H](Cc1cnc[nH]1)C(=O)N[C@@H](CC(N)=O)C(=O)NCC(=O)N[C@@H](CO)C(=O)N[C@@H](C)C(=O)N[C@@H](CCC(N)=O)C(=O)N[C@@H](CC(C)C)C(=O)N[C@H](CC(C)C)C(=O)N[C@@H](CCCN=C(N)N)C(=O)N[C@@H](CCC(N)=O)C(=O)N[C@@H](CC(C)C)C(=O)N[C@@H](CCCN=C(N)N)C(=O)NCC(=O)N[C@@H](CCC(N)=O)C(=O)N[C@@H](CC(C)C)C(=O)NCC(=O)N1CCC[C@H]1C(=O)N1CCC[C@H]1C(=O)NCC(=O)N[C@@H](CO)C(=O)N[C@@H](CCCN=C(N)N)C(N)=O` had a pEC50 of 9.36.

`CC[C@H](C)[C@H](NC(=O)[C@@H](CC(C)C)NC(=O)[C@@H](NC(=O)[C@@H](N)CCSC)[C@@H](C)O)C(=O)NCC(=O)N[C@@H](C)C(=O)N[C@@H](C)C(=O)N[C@@H](Cc1cnc[nH]1)C(=O)N[C@@H](CC(N)=O)C(=O)NCC(=O)N[C@@H](CO)C(=O)N[C@@H](C)C(=O)N[C@@H](CCC(N)=O)C(=O)N[C@@H](CC(C)C)C(=O)N[C@@H](CC(C)C)C(=O)N[C@@H](CCCN=C(N)N)C(=O)N[C@@H](CCC(N)=O)C(=O)N[C@@H](CC(C)C)C(=O)N[C@@H](CCCN=C(N)N)C(=O)NCC(=O)N[C@@H](CCC(N)=O)C(=O)N[C@@H](CC(C)C)C(=O)NCC(=O)N1CCC[C@H]1C(=O)N1CCC[C@H]1C(=O)NCC(=O)N[C@@H](CO)C(=O)N[C@@H](CCCN=C(N)N)C(N)=O` gave a pEC50 of under 6.70.

Consider `CC[C@H](C)[C@H](NC(=O)[C@H](CC(C)C)NC(=O)[C@@H](NC(=O)[C@@H](N)CCSC)[C@@H](C)O)C(=O)NCC(=O)N[C@@H](C)C(=O)N[C@@H](C)C(=O)N[C@@H](Cc1cnc[nH]1)C(=O)N[C@@H](CC(N)=O)C(=O)NCC(=O)N[C@@H](CO)C(=O)N[C@@H](C)C(=O)N[C@@H](CCC(N)=O)C(=O)N[C@@H](CC(C)C)C(=O)N[C@@H](CC(C)C)C(=O)N[C@@H](CCCN=C(N)N)C(=O)N[C@@H](CCC(N)=O)C(=O)N[C@@H](CC(C)C)C(=O)N[C@@H](CCCN=C(N)N)C(=O)NCC(=O)N[C@H](CCC(N)=O)C(=O)N[C@@H](CC(C)C)C(=O)NCC(=O)N1CCC[C@H]1C(=O)N1CCC[C@H]1C(=O)NCC(=O)N[C@@H](CO)C(=O)N[C@@H](CCCN=C(N)N)C(N)=O`, for which the pEC50 is 9.49.

Compound `CC[C@H](C)[C@H](NC(=O)[C@H](CC(C)C)NC(=O)[C@@H](NC(=O)[C@@H](N)CCSC)[C@@H](C)O)C(=O)N[C@@H](C)C(=O)N[C@@H](C)C(=O)N[C@@H](C)C(=O)N[C@@H](Cc1cnc[nH]1)C(=O)N[C@@H](CC(N)=O)C(=O)NCC(=O)N[C@@H](CO)C(=O)N[C@@H](C)C(=O)N[C@@H](CCC(N)=O)C(=O)N[C@@H](CC(C)C)C(=O)N[C@@H](CC(C)C)C(=O)N[C@@H](CCCN=C(N)N)C(=O)N[C@@H](CCC(N)=O)C(=O)N[C@@H](CC(C)C)C(=O)N[C@@H](CCCN=C(N)N)C(=O)NCC(=O)N[C@@H](CCC(N)=O)C(=O)N[C@@H](CC(C)C)C(=O)NCC(=O)N1CCC[C@H]1C(=O)N1CCC[C@H]1C(=O)NCC(=O)N[C@@H](CO)C(=O)N[C@@H](CCCN=C(N)N)C(N)=O` had a negative logarithm of the EC50 (pEC50) of 6.54.

As for H-MTLIGAAHNGSAQLLRQLRGALGPPGSR-NH2, the negative-log EC50 (pEC50) was 9.34.

For `CC[C@H](C)[C@H](NC(=O)[C@H](CC(C)C)NC(=O)[C@@H](NC(=O)[C@@H](N)CCSC)[C@@H](C)O)C(=O)NCC(=O)N[C@@H](C)C(=O)N[C@@H](C)C(=O)N[C@H](Cc1cnc[nH]1)C(=O)N[C@@H](CC(N)=O)C(=O)NCC(=O)N[C@@H](CO)C(=O)N[C@@H](C)C(=O)N[C@@H](CCC(N)=O)C(=O)N[C@@H](CC(C)C)C(=O)N[C@@H](CC(C)C)C(=O)N[C@@H](CCCN=C(N)N)C(=O)N[C@@H](CCC(N)=O)C(=O)N[C@@H](CC(C)C)C(=O)N[C@@H](CCCN=C(N)N)C(=O)NCC(=O)N[C@@H](CCC(N)=O)C(=O)N[C@@H](CC(C)C)C(=O)NCC(=O)N1CCC[C@H]1C(=O)N1CCC[C@H]1C(=O)NCC(=O)N[C@@H](CO)C(=O)N[C@@H](CCCN=C(N)N)C(N)=O`, the pEC50 is 9.00.

`CC[C@H](C)[C@H](NC(=O)[C@H](CC(C)C)NC(=O)[C@@H](NC(=O)[C@@H](N)CCSC)[C@@H](C)O)C(=O)NCC(=O)N[C@@H](C)C(=O)N[C@@H](C)C(=O)N[C@@H](Cc1c[nH]cn1)C(=O)N[C@@H](CC(N)=O)C(=O)NCC(=O)N[C@@H](CO)C(=O)N[C@@H](C)C(=O)N[C@@H](CCC(N)=O)C(=O)N[C@@H](CC(C)C)C(=O)N[C@@H](CC(C)C)C(=O)N[C@@H](CCCN=C(N)N)C(=O)N[C@H](CCC(N)=O)C(=O)N[C@H](CC(C)C)C(=O)N[C@@H](CCCN=C(N)N)C(=O)NCC(=O)N[C@@H](CCC(N)=O)C(=O)N[C@@H](CC(C)C)C(=O)NCC(=O)N1CCC[C@H]1C(=O)N1CCC[C@H]1C(=O)NCC(=O)N[C@@H](CO)C(=O)N[C@@H](CCCN=C(N)N)C(N)=O` showed a negative-log EC50 (pEC50) of 9.96.

With `CC[C@H](C)[C@H](NC(=O)[C@H](CC(C)C)NC(=O)[C@@H](NC(=O)[C@@H](N)CCSC)[C@@H](C)O)C(=O)NCC(=O)N[C@@H](C)C(=O)N[C@@H](C)C(=O)N[C@@H](Cc1c[nH]cn1)C(=O)N[C@@H](CC(N)=O)C(=O)NCC(=O)N[C@H](CO)C(=O)N[C@@H](C)C(=O)N[C@@H](CCC(N)=O)C(=O)N[C@@H](CC(C)C)C(=O)N[C@@H](CC(C)C)C(=O)N[C@@H](CCCN=C(N)N)C(=O)N[C@@H](CCC(N)=O)C(=O)N[C@@H](CC(C)C)C(=O)N[C@@H](CCCN=C(N)N)C(=O)NCC(=O)N[C@@H](CCC(N)=O)C(=O)N[C@@H](CC(C)C)C(=O)NCC(=O)N1CCC[C@H]1C(=O)N1CCC[C@H]1C(=O)NCC(=O)N[C@@H](CO)C(=O)N[C@@H](CCCN=C(N)N)C(N)=O`, the pEC50 is 9.34.

As for `CC[C@H](C)[C@H](NC(=O)[C@H](CC(C)C)NC(=O)[C@@H](NC(=O)[C@@H](N)CCSC)[C@@H](C)O)C(=O)NCC(=O)N[C@@H](C)C(=O)N[C@@H](C)C(=O)N[C@@H](Cc1c[nH]cn1)C(=O)N[C@@H](CC(N)=O)C(=O)NCC(=O)N[C@@H](CO)C(=O)N[C@@H](C)C(=O)N[C@@H](CCC(N)=O)C(=O)N[C@@H](CC(C)C)C(=O)N[C@@H](CC(C)C)C(=O)N[C@@H](CCCN=C(N)N)C(=O)N[C@@H](CCC(N)=O)C(=O)N[C@@H](CC(C)C)C(=O)N[C@@H](CCCN=C(N)N)C(=O)NCC(=O)N[C@@H](CCC(N)=O)C(=O)N[C@@H](CC(C)C)C(=O)NCC(=O)N1CCC[C@H]1C(=O)N1CCC[C@H]1C(=O)NCC(=O)N[C@@H](CO)C(=O)N[C@H](CCCN=C(N)N)C(N)=O`, the pEC50 was 9.72.

For orientation: pEC50 means the negative decadic logarithm of the EC50, by convention in mol/L.
